According to ChEMBL document CHEMBL1159199, “A new antiplatelet diarylheptanoid from Alpinia blepharocalyx” (1998):

Tests used:
Format in all cases: functional
[1] = Antiplatelet activity in human whole blood assessed as inhibition of collagen-induced platelet aggregation at 100 ug/mL relative to control
[2] = Antiplatelet activity in human whole blood assessed as inhibition of arachidonic acid-induced platelet aggregation at 100 ug/mL relative to control
[3] = Antiplatelet activity in human whole blood assessed as inhibition of ADP-induced platelet aggregation at 100 ug/mL relative to control
[4] = Antiplatelet activity in human whole blood assessed as inhibition of ristocetin-induced platelet aggregation at 100 ug/mL relative to control

SMILES	inhibition at 100 µg/mL [1]	inhibition at 100 µg/mL [2]	inhibition at 100 µg/mL [3]	inhibition at 100 µg/mL [4]
COc1ccc2c(c1)c(CC(=O)O)c(C)n2C(=O)c1ccc(Cl)cc1 [INDOMETHACIN]	71.1%	100%	36.7%	52.1%
O=C(/C=C/c1ccc(O)cc1)CC(=O)/C=C/c1ccc(O)cc1 [BISDEMETHOXYCURCUMIN]	76.3%	46.8%	35.4%	38.3%
COc1cc(O)cc(O)c1C(=O)/C=C/c1ccccc1 [CARDAMOMIN]	56%	100%	62.9%	0%
COc1cc(/C=C/c2ccccc2)oc(=O)c1 [DESMETHOXYYANGONIN]	48.9%	100%	43.8%	33.3%
O=C(/C=C(O)/C=C/c1ccc(O)cc1)CCc1ccc(O)cc1	77.3%	100%	100%	62.8%
COc1cc(O)cc2c1C(=O)CC(c1ccc(O)cc1)O2 (stereo unspecified)	57.7%	26.2%	14.5%	37.2%
COc1cc(O)cc(O)c1C(=O)/C=C/c1ccc(O)cc1 [HELICHRYSETIN]	32.3%	100%	48.9%	63.8%
O=Cc1ccc(O)cc1 [4-HYDROXYBENZALDEHYDE]	23.6%	5.4%	39.8%	11%
COc1cc(/C=C/c2ccc(O)cc2)oc(=O)c1	86.9%	100%	100%	100%
